From patent publication US20130345419A1, “AZOLE DERIVATIVE” (TAISHO PHARMACEUTICAL CO., LTD., priority 2011, published 2013)

molecular target: T1, human recombinant FKBP12 (Homo sapiens, UniProt P62942); test: Test 1: immunophilin FKBP12 rotamase (peptidylprolyl isomerase) inhibiting activity; format: biochemical; conditions: 12 nM human recombinant FKBP12, substrate succinyl-Ala-Phe-Pro-Phe-paranitroanilide 48 μM, 4° C.; read-out: PKBP12 rotamase inhibiting activity IC50
T1 construct: purchased Sigma F-5398
T1 sequence (P62942 whole entry): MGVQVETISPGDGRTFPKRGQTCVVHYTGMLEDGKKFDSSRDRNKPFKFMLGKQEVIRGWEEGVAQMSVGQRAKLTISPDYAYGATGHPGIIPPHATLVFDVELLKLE
Protocol: (Test 1) Test for Measuring Immunophilin FKBP12 Rotamase Activity
The rotamase (peptidylprolyl isomerase) inhibiting activity of each test compound was measured by a known method (Harding et al., Nature 341, 758-760, 1989; Holts et al., J. Am. Chem. Soc. 115, 9925-9938, 1993.) To be more specific, a plastic cuvette was charged with 35 mM HEPES (pH 7.8), 12 nM human recombinant FKBP12 (Sigma, F-5398), 0.4 mg/mL α-chymotrypsin, and a test compound dissolved in DMSO at varying concentrations (DMSO's final concentration was 0.1%.) Subsequently, 24 mM of the substrate peptide, succinyl-Ala-Phe-Pro-Phe-paranitroanilide, as dissolved in trifluoroethanol containing 500 mM of LiCl was added to give a final concentration of 48 μM, whereupon reaction started. The reaction was carried out at 4° C. and the change in absorbance at 390 nm accompanying the liberation of the paranitroaniline product was monitored. A calculated initial rate minus the corresponding value in the absence of the enzyme was used as an index of rotamase activity. The rotamase inhibiting activity of a test compound was expressed in relative values (%) with respect to the control value of rotamase activity in the absence of the compound, and the concentration of the compound at which it was capable of inhibiting rotamase activity by 50% was calculated as an IC50 value from its concentration response curve.

SMILES | IC50 [µM]
COc1ccc(CCCc2nnc([C@@H]3CCCN3C(=O)C(F)(F)C3(O)CC(C)(C)CC(C)(C)C3)o2)cc1OC [Compound 14] | 0.5 to 1
COc1ccc(Cc2nnc([C@@H]3CCCN3C(=O)C(F)(F)C3(O)CC(C)(C)CC(C)(C)C3)o2)cc1OC [Compound 16] | 0.142
CC1(C)CC(C)(C)CC(O)(C(F)(F)C(=O)N2CCC[C@H]2c2nnc(COc3cccnc3)o2)C1 [Compound 17] | 0.356
CC1(C)CC(C)(C)CC(O)(C(F)(F)C(=O)N2CCC[C@H]2c2cc(CO)on2)C1 [Compound 18, (S)-2,2-Difluoro-2-(1-hydroxy-3,3,5,5-tetramethylcyclohexyl)-1-(2-(5-(hydroxymethyl)isoxazol-3-yl)pyrrolidin-1-yl)ethanone] | 0.5 to 1
CC1(C)CC(C)(C)CC(O)(C(F)(F)C(=O)N2CCC[C@H]2c2nnc(COc3ccc(CO)cc3)o2)C1 [Compound 19] | 0.229
COc1cc(OCc2nnc([C@@H]3CCCN3C(=O)C(F)(F)C3(O)CC(C)(C)CC(C)(C)C3)o2)cc(OC)c1OC [Compound 20] | 0.276
COc1cc(OCc2cc([C@@H]3CCCN3C(=O)C(F)(F)C3(O)CC(C)(C)CC(C)(C)C3)no2)cc(OC)c1OC [Compound 21, (S)-2,2-Difluoro-2-(1-hydroxy-3,3,5,5-tetramethylcyclohexyl)-1-(2-(5-((3,4,5-trimethoxyphenoxy)methyl)isoxazol-3-yl)pyrrolidin-1-yl)ethanone] | 0.064
CC1(C)CC(C)(C)CC(O)(C(F)(F)C(=O)N2CCC[C@H]2c2nnc(CO)o2)C1 [Compound 22, (S)-2,2-Difluoro-2-(1-hydroxy-3,3,5,5-tetramethylcyclohexyl)-1-(2-(5-(hydroxymethy)-1,3,4-oxadiazol-2-yl)pyrrolidin-1-yl)ethanone] | 1 to 2
CC1(C)CC(C)(C)CC(O)(C(F)(F)C(=O)N2CCC[C@H]2c2nnc(COS(C)(=O)=O)o2)C1 [Compound 23, (S)-(5-(1-(2,2-Difluoro-2-(1-hydroxy-3,3,5,5-tetramethylcyclohexyl)acetyl)pyrrolidin-2-yl)-1,3,4-oxadiazol-2-yl)methyl methanesulfonate] | 1 to 2
COc1ccc(OCc2nnc([C@@H]3CCCN3C(=O)C(F)(F)C3(O)CC(C)(C)CC(C)(C)C3)o2)cc1 [Compound 24] | 0.218
COc1ccccc1OCc1nnc([C@@H]2CCCN2C(=O)C(F)(F)C2(O)CC(C)(C)CC(C)(C)C2)o1 [Compound 25] | 0.401
COc1cccc(OCc2nnc([C@@H]3CCCN3C(=O)C(F)(F)C3(O)CC(C)(C)CC(C)(C)C3)o2)c1 [Compound 26] | 0.5 to 1
Cc1nnc([C@@H]2CCCN2C(=O)C(F)(F)C2(O)CC(C)(C)CC(C)(C)C2)o1 [Compound 27] | 0.5 to 1
COc1ccc(Oc2nnc([C@@H]3CCCN3C(=O)C(F)(F)C3(O)CC(C)(C)CC(C)(C)C3)o2)cc1OC [Compound 28] | 0.351
CC1(C)CC(C)(C)CC(O)(C(F)(F)C(=O)N2CCC[C@H]2c2nnc(COc3ccccc3)o2)C1 [Compound 29, (S)-2,2-Difluoro-2-(1-hydroxy-3,3,5,5-tetramethylcyclohexyl)-1-(2-(5-(phenoxymethyl)-1,3,4-oxadiazol-2-yl)pyrrolidin-1-yl)ethanone] | 0.062
COc1ccc(OCc2nnc([C@@H]3CCCN3C(=O)C(F)(F)C3(O)CC(C)(C)CC(C)(C)C3)o2)c(OC)c1 [Compound 30] | 0.22
COc1ccc(OCc2nnc([C@@H]3CCCN3C(=O)C(F)(F)C3(O)CC(C)(C)CC(C)(C)C3)o2)cn1 [Compound 31] | 0.389
CC1(C)CC(C)(C)CC(O)(C(F)(F)C(=O)N2CCC[C@H]2c2nnc(COc3ccc4c(c3)OCO4)o2)C1 [Compound 32] | 0.165
CC1(C)CC(C)(C)CC(O)(C(F)(F)C(=O)N2CCC[C@H]2c2nnc(COc3ccc4cc[nH]c4c3)o2)C1 [Compound 33] | 0.259
CC1(C)CC(C)(C)CC(O)(C(F)(F)C(=O)N2CCC[C@H]2c2nnc(Cc3cccnc3)o2)C1 [Compound 34] | 0.5 to 1

SMILES | IC50 [µM]
CC1(C)CC(C)(C)CC(O)(C(F)(F)C(=O)N2CCC[C@H]2c2cc(CCc3cccnc3)on2)C1 [Compound 35] | 0.045
CC1(C)CC(C)(C)CC(O)(C(F)(F)C(=O)N2CCC[C@H]2c2nnc(COc3cncnc3)o2)C1 [Compound 36] | 1 to 2
CC1(C)CC(C)(C)CC(O)(C(F)(F)C(=O)N2CCC[C@H]2c2nnc(CN)o2)C1 [Compound 37] | 1 to 2
CC1(C)CC(C)(C)CC(O)(C(F)(F)C(=O)N2CCC[C@H]2c2nnc(CNC(=O)c3ccccc3)o2)C1 [Compound 38, (S)—N-((5-(1-(2,2-Difluoro-2-(1-hydroxy-3,3,5,5-tetramethylcyclohexyl)acetyl)pyrrolidin-2-yl)-1,3,4-oxadiazol-2-yl)methyl)benzamide] | 0.5 to 1
CN(C)Cc1nnc([C@@H]2CCCN2C(=O)C(F)(F)C2(O)CC(C)(C)CC(C)(C)C2)o1 [Compound 39, (S)-1-(2-(5-((Dimethylamino)methyl)-1,3,4-oxadiazol-2-yl)pyrrolidin-1-yl)-2,2-difluoro-2-(1-hydroxy-3,3,5,5-tetramethylcyclohexyl)ethanone] | 0.5 to 1
COc1ccc(OCc2cc([C@@H]3CCCN3C(=O)C(F)(F)C3(O)CC(C)(C)CC(C)(C)C3)no2)cn1 [Compound 41, (S)-2,2-Difluoro-2-(1-hydroxy-3,3,5,5-tetramethylcyclohexyl)-1-(2-(5-(((6-methoxypyridin-3-yl)oxy)methyl)isoxazol-3-yl)pyrrolidin-1-yl)ethanone] | 0.15
CC1(C)CC(C)(C)CC(O)(C(F)(F)C(=O)N2CCC[C@H]2c2cc(CN)on2)C1 [Compound 42, (S)-1-(2-(5-(Aminomethyl)isoxazol-3-yl)pyrrolidin-1-yl)-2,2-difluoro-2-(1-hydroxy-3,3,5,5-tetramethylcyclohexyl)ethanone] | 0.447
COc1ccc(OCc2cc([C@@H]3CCCN3S(=O)(=O)CC3CCCCC3)no2)cc1OC [Compound 43, (S)-3-(1-((Cyclohexylmethyl)sulfonyl)pyrrolidin-2-yl)-5-((3,4-dimethoxyphenoxy)methyl)isoxazole] | 0.149
CC1(C)CC(C)(C)CC(O)(C(F)(F)C(=O)N2CCC[C@H]2c2cc(CNC(=O)c3ccccc3)on2)C1 [Compound 44, (S)—N-((3-(1-(2,2-Difluoro-2-(1-hydroxy-3,3,5,5-tetramethylcyclohexyl)acetyl)pyrrolidin-2-yl)isoxazol-5-yl)methyl)benzamide] | 0.166
CC1(C)CC(C)(C)CC(O)(C(F)(F)C(=O)N2CCC[C@H]2c2cc(CNS(=O)(=O)c3ccccc3)on2)C1 [Compound 45, (S)—N-((3-(1-(2,2-Difluoro-2-(1-hydroxy-3,3,5,5-tetramethylcyclohexyl)acetyl)pyrrolidin-2-yl)isoxazol-5-yl)methyl)benzenesulfonamide] | 0.101
CN(C)Cc1cc([C@@H]2CCCN2C(=O)C(F)(F)C2(O)CC(C)(C)CC(C)(C)C2)no1 [Compound 46, (S)-1-(2-(5-((Dimethylamino)methyl)isoxazol-3-yl)pyrrolidin-1-yl)-2,2-difluoro-2-(1-hydroxy-3,3,5,5-tetramethylcyclohexyl)ethanone] | 0.31
CC1(C)CC(C)(C)CC(O)(C(F)(F)C(=O)N2CCC[C@H]2c2cc(CN3CCOCC3)on2)C1 [Compound 47] | 0.254
CC1(C)CC(C)(C)CC(O)(C(F)(F)C(=O)N2CCC[C@H]2c2cc(CNC(=O)Cc3ccccc3)on2)C1 [Compound 48] | 0.094
CC1(C)CC(C)(C)CC(O)(C(F)(F)C(=O)N2CCC[C@H]2c2cc(C(C)(C)O)on2)C1 [Compound 49] | 0.5 to 1
COc1ccc(C(=O)NCc2cc([C@@H]3CCCN3C(=O)C(F)(F)C3(O)CC(C)(C)CC(C)(C)C3)no2)cc1OC [Compound 50] | 0.117
COc1ccc(CC(=O)NCc2cc([C@@H]3CCCN3C(=O)C(F)(F)C3(O)CC(C)(C)CC(C)(C)C3)no2)cc1OC [Compound 51] | 0.074
CC1(C)CC(C)(C)CC(O)(C(F)(F)C(=O)N2CCC[C@H]2c2cc(COc3ccnnc3)on2)C1 [Compound 53, (S)-2,2-Difluoro-2-(1-hydroxy-3,3,5,5-tetramethylcyclohexyl)-1-(2-(5-((pyridazin-4-yloxy)methyl)isoxazol-3-yl)pyrrolidin-1-yl)ethanone] | 0.086
CC1(C)CC(C)(C)CC(O)(C(F)(F)C(=O)N2CCC[C@H]2c2cc(COc3ccccn3)on2)C1 [Compound 54, (S)-2,2-Difluoro-2-(1-hydroxy-3,3,5,5-tetramethylcyclohexyl)-1-(2-(5-((pyridin-2-yloxy)methyl)isoxazol-3-yl)pyrrolidin-1-yl)ethanone] | 0.29
CC1(C)CC(C)(C)CC(O)(C(F)(F)C(=O)N2CCC[C@H]2c2cc(COc3cnccn3)on2)C1 [Compound 55, (S)-2,2-Difluoro-2-(1-hydroxy-3,3,5,5-tetramethylcyclohexyl)-1-(2-(5-((pyrazin-2-yloxy)methyl)isoxazol-3-yl)pyrrolidin-1-yl)ethanone] | 0.228
CC1(C)CC(C)(C)CC(O)(C(F)(F)C(=O)N2CCC[C@H]2c2cc(COc3cccnn3)on2)C1 [Compound 56, (S)-2,2-Difluoro-2-(1-hydroxy-3,3,5,5-tetramethylcyclohexyl)-1-(2-(5-((pyridazin-3-yloxy)methyl)isoxazol-3-yl)pyrrolidin-1-yl)ethanone] | 0.328
